Assay results published in the NIST ThermoML archive (doi:10.1021/je4000372).
± gives the expanded uncertainty stated by the source.

Columns and labels:
[1] = 101 kPa, Liquid; for viscosity: Capillary tube (Ostwald / Ubbelohde) method; for mass density: Pycnometric method
[2] = xn = mol fraction of the nth substance listed; settings: 101 kPa, Liquid; for viscosity: Capillary tube (Ostwald / Ubbelohde) method; for mass density: Pycnometric method

Structure (SMILES)	viscosity ([1]; 293.15 K)	mass density ([1]; 293.15 K)	viscosity ([1]; 303.15 K)	mass density ([1]; 303.15 K)	viscosity ([1]; 313.15 K)	mass density ([1]; 313.15 K)	viscosity ([1]; 323.15 K)	mass density ([1]; 323.15 K)	viscosity ([1]; 333.15 K)	mass density ([1]; 333.15 K)	also measured
NCCO [2-aminoethan-1-ol]	24.14 ± 0.76 mPa·s	1016.1 ± 2.1 kg/m3	14.88 ± 0.48 mPa·s	1008.4 ± 2.1 kg/m3	9.93 ± 0.32 mPa·s	1000.1 ± 2.1 kg/m3	6.89 ± 0.22 mPa·s	991.9 ± 2.1 kg/m3	4.97 ± 0.16 mPa·s	983.6 ± 2.1 kg/m3	–
NCCO [2-aminoethan-1-ol] + CCCCOCCOCCO	–	–	–	–	–	–	–	–	–	–	viscosity ([2]; 293.15 K, x2 = 0): 24.14 ± 0.76 mPa·s; mass density ([2]; 293.15 K, x2 = 0): 1016.1 ± 2.1 kg/m3; viscosity ([2]; 303.15 K, x2 = 0): 14.88 ± 0.48 mPa·s; mass density ([2]; 303.15 K, x2 = 0): 1008.4 ± 2.1 kg/m3; viscosity ([2]; 313.15 K, x2 = 0): 9.93 ± 0.32 mPa·s; mass density ([2]; 313.15 K, x2 = 0): 1000.1 ± 2.1 kg/m3; viscosity ([2]; 323.15 K, x2 = 0): 6.89 ± 0.22 mPa·s; mass density ([2]; 323.15 K, x2 = 0): 991.9 ± 2.1 kg/m3; viscosity ([2]; 333.15 K, x2 = 0): 4.97 ± 0.16 mPa·s; mass density ([2]; 333.15 K, x2 = 0): 983.6 ± 2.1 kg/m3
CCCCOCCOCCO [3,6-dioxa-1-decanol]	5.84 ± 0.18 mPa·s	952.9 ± 2.1 kg/m3	4.23 ± 0.13 mPa·s	943.5 ± 2 kg/m3	3.22 ± 0.1 mPa·s	935.7 ± 2 kg/m3	2.51 ± 0.08 mPa·s	926.6 ± 2 kg/m3	2 ± 0.06 mPa·s	918.5 ± 2 kg/m3	–
CCCCOCCOCCO [3,6-dioxa-1-decanol] + OCCN(CCO)CCO	–	–	–	–	–	–	–	–	–	–	viscosity ([2]; 293.15 K, x1 = 1): 5.84 ± 0.18 mPa·s; mass density ([2]; 293.15 K, x1 = 1): 952.9 ± 2.1 kg/m3; viscosity ([2]; 303.15 K, x1 = 1): 4.23 ± 0.13 mPa·s; mass density ([2]; 303.15 K, x1 = 1): 943.5 ± 2 kg/m3; viscosity ([2]; 313.15 K, x1 = 1): 3.22 ± 0.1 mPa·s; mass density ([2]; 313.15 K, x1 = 1): 935.7 ± 2 kg/m3; viscosity ([2]; 323.15 K, x1 = 1): 2.51 ± 0.08 mPa·s; mass density ([2]; 323.15 K, x1 = 1): 926.6 ± 2 kg/m3; viscosity ([2]; 333.15 K, x1 = 1): 2 ± 0.06 mPa·s; mass density ([2]; 333.15 K, x1 = 1): 918.5 ± 2 kg/m3
OCCNCCO [diethanolamine]	890.9 ± 49 mPa·s	1096.1 ± 2.3 kg/m3	382.2 ± 18 mPa·s	1089.8 ± 2.2 kg/m3	187.6 ± 7.4 mPa·s	1083.7 ± 2.2 kg/m3	99.11 ± 3.4 mPa·s	1077.4 ± 2.2 kg/m3	58.12 ± 1.9 mPa·s	1070.7 ± 2.2 kg/m3	–
OCCNCCO [diethanolamine] + CCCCOCCOCCO	–	–	–	–	–	–	–	–	–	–	viscosity ([2]; 293.15 K, x2 = 0): 890.9 ± 49 mPa·s; mass density ([2]; 293.15 K, x2 = 0): 1096.1 ± 2.3 kg/m3; viscosity ([2]; 303.15 K, x2 = 0): 382.2 ± 18 mPa·s; mass density ([2]; 303.15 K, x2 = 0): 1089.8 ± 2.2 kg/m3; viscosity ([2]; 313.15 K, x2 = 0): 187.6 ± 7.4 mPa·s; mass density ([2]; 313.15 K, x2 = 0): 1083.7 ± 2.2 kg/m3; viscosity ([2]; 323.15 K, x2 = 0): 99.11 ± 3.4 mPa·s; mass density ([2]; 323.15 K, x2 = 0): 1077.4 ± 2.2 kg/m3; viscosity ([2]; 333.15 K, x2 = 0): 58.12 ± 1.9 mPa·s; mass density ([2]; 333.15 K, x2 = 0): 1070.7 ± 2.2 kg/m3
OCCN(CCO)CCO [triethanolamine]	917.6 ± 51 mPa·s	1124.3 ± 2.3 kg/m3	404.7 ± 19 mPa·s	1118.5 ± 2.3 kg/m3	203.9 ± 8.2 mPa·s	1112.8 ± 2.3 kg/m3	108.3 ± 3.8 mPa·s	1107.1 ± 2.3 kg/m3	64.2 ± 2.2 mPa·s	1101.5 ± 2.3 kg/m3	–
